Results on 17 molecules are retold here after patent publication US20250109141A1, “BRD4 PROTEIN DEGRADER COMPOUND, AND PREPARATION METHOD AND USE THEREOF” (Miracure Biotechnology Limited, priority 2023, published 2025).

Each structure is given as a SMILES string. Where two headings read alike, the source gives them in different places. Where only a bound is given, the exact number is not on record here.

For one assay, the target named is BRD4 (Homo sapiens, UniProt O60885). As to the kind of experiment: BRD4 degradation assay (Western-blot / Simple Western) in 22RV1. The conditions noted are these: 22RV1 cells, target content as percentage of control (DMSO = 100%).
In another assay the test system is 22RV1. As to the kind of experiment: Cell proliferation assay (CellTiterGlo, 72 h), 22RV1. The class given is cell-based. The conditions noted are these: Homo sapiens, read-out: 22Rv1 ATP average IC50. As for the experimental part:
All incubations were performed at 37° C. in a humidified carbon dioxide incubator.
(§1) The cells were seeded in a 96-well plate (white wall/transparent bottom) at 5000 cells/well and cultured overnight.
(§2) On day 2, A stock solution of the compound at a concentration of 10 mM was subjected to an 8-fold serial dilution to obtain 8 concentration points. 2 μL of the compound solution at each concentration point was added to 98 μL of fresh medium, and the mixture was mixed homogeneously. Then, 5 μL of the compound solution diluted in the medium at each concentration point was added to 100 μL of overnight medium containing the cells, and 2 replicates were set for each concentration. The mixture was cultured for 72 h.
(§3) After 72 h of compound treatment, the plate was equilibrated to room temperature, 100 μL of CellTiterGlo (Promega) was added. The mixture was mixed homogeneously for 2 min, left to stand at room temperature for 10 min, and then read for luminescence values on a SpectraMax M5 microplate reader to evaluate cell viability. The positive control was 1% Tween-20 and the negative control was 0.1% DMSO. IC50 was generated by 4-parameter non-linear regression fitting in GraphPad Prism.
On the technique in general: Cellular ATP, detected with luciferase, serves as a proxy for viable cell number.

The test system of another assay is LNCaP. As to the kind of experiment: Cell proliferation assay (CellTiterGlo, 72 h), LNCaP. The class given is cell-based. The conditions noted are these: Homo sapiens, LNCap cells, 72 h compound treatment, read-out: LNCap ATP average IC50. How it is done: The cell line used was 22RV1 or LNCaP, and the medium was RPMI-1640 containing 10% FBS and antibiotics. All incubations were performed at 37° C. in a humidified carbon dioxide incubator.
On day 1, cells were digested with 0.25% trypsin (containing EDTA) and collected by centrifugation.
as §1, §2, §3

[1] abbreviates: 22Rv1 cells, 72 h compound treatment, CellTiterGlo.

For the molecule `Cc1sc2c(c1C)C(c1ccc(/C=C/CNO)cc1)=N[C@@H](CC(=O)OC(C)(C)C)c1nnc(C)n1-2` [Compound 9011], the “BRD4 degradation of 22RV1 (200 nM 5 h)” value at BRD4 was “A (A<20%)”. Besides, the IC50 in the assay on 22RV1 (setting [1]) and in the assay on LNCaP was under 50 nM throughout.

As for `CONC/C=C/c1ccc(C2=N[C@@H](CC(=O)OC(C)(C)C)c3nnc(C)n3-c3sc(C)c(C)c32)cc1` [Compound 9065], on BRD4, the “BRD4 degradation of 22RV1 (200 nM 5 h)” value is recorded as “B (20%<B<50%)”. The IC50 in the assay with 22RV1 (setting [1]) and in the assay on LNCaP was under 50 nM in each case.

For `Cc1sc2c(c1C)C(c1ccc(-c3ccc(CN)o3)cc1)=N[C@@H](CC(=O)OC(C)(C)C)c1nnc(C)n1-2` [Compound 9071], the “BRD4 degradation of 22RV1 (200 nM 5 h)” value on BRD4 was “C (50%<C<80)”. The IC50 with 22RV1 (setting [1]) and in the assay with LNCaP was 50 to 200 nM each time.

As for `COc1ccc2c(c1)C(c1ccc(/C=C/CNO)cc1)=N[C@@H](CC(=O)OC(C)(C)C)c1nnc(C)n1-2` [Compound 9077], at BRD4, the “BRD4 degradation of 22RV1 (200 nM 5 h)” value is given as “A (A<20%)”. Further, the IC50 was under 50 nM in the assay with 22RV1 (22Rv1, 72 h) and under 50 nM in the assay with LNCaP.

Consider `CONCC#Cc1ccc(C2=N[C@@H](CC(=O)OC(C)(C)C)c3nnc(C)n3-c3ccc(OC)cc32)cc1` [Compound 9078], for which the “BRD4 degradation of 22RV1 (200 nM 5 h)” value on BRD4 is reported as “B (20%<B<50%)”. In addition, the half-inhibitory concentration (IC50) was under 50 nM in the assay on 22RV1 (22Rv1, 72 h) and under 50 nM in the assay on LNCaP.

Turning to `CONC/C=C/c1ccc(C2=N[C@@H](CC(=O)OC(C)(C)C)c3nnc(C)n3-c3ccc(OC)cc32)cc1` [Compound 9079], the “BRD4 degradation of 22RV1 (200 nM 5 h)” value at BRD4 is “A (A<20%)”. In addition, the IC50 in the assay with 22RV1 (22Rv1, 72 h) is under 50 nM; in the assay with LNCaP, under 50 nM.

As for `COc1ccc2c(c1)C(c1ccc(C#CCN)cc1)=N[C@@H](CC(=O)OC(C)(C)C)c1nnc(C)n1-2` [Compound 9080], the “BRD4 degradation of 22RV1 (200 nM 5 h)” value at BRD4 is recorded as “B (20%<B<50%)”. The half-inhibitory concentration (IC50) is under 50 nM in the assay on 22RV1 (22Rv1, 72 h) and 50 to 200 nM with LNCaP.

For `Cc1sc2c(c1C)C(c1ccc(C#CCN)cc1)=N[C@@H](CC(=O)OC1(C)CC1)c1nnc(C)n1-2` [Compound 9103], the “BRD4 degradation of 22RV1 (200 nM 5 h)” value at BRD4 is given as “B (20%<B<50%)”. The IC50 was under 50 nM in the assay with 22RV1 (22Rv1, 72 h) and under 50 nM in the assay with LNCaP.

Regarding `CNC(=O)C#Cc1ccc(C2=N[C@@H](CC(=O)OC(C)(C)C)c3nnc(C)n3-c3sc(C)c(C)c32)cc1` [Compound 9104], the “BRD4 degradation of 22RV1 (200 nM 5 h)” value at BRD4 is listed as “D (80%<D<100%)”. In addition, the IC50 in the assay on 22RV1 (setting [1]) is under 50 nM.

As to `CC(=O)N(O)C/C=C/c1ccc(C2=N[C@@H](CC(=O)OC(C)(C)C)c3nnc(C)n3-c3sc(C)c(C)c32)cc1` [Compound 9109], the “BRD4 degradation of 22RV1 (200 nM 5 h)” value on BRD4 was “C (50%<C<80)”. In addition, the IC50 with 22RV1 (setting [1]) was in the range of 200 to 500 nM; in the assay with LNCaP, 50 to 200 nM.

As to `Cc1sc2c(c1C)C(c1ccc(/C=C/CNC(=N)NO)cc1)=N[C@@H](CC(=O)OC(C)(C)C)c1nnc(C)n1-2` [Compound 9114], on BRD4, the “BRD4 degradation of 22RV1 (200 nM 5 h)” value is given as “C (50%<C<80)”. Besides, the IC50 with 22RV1 (setting [1]) was in the range of 50 to 200 nM.

With `COc1ccc2c(c1)C(c1ccc3c(c1)NC(=O)CC3)=N[C@@H](CC(=O)OC(C)(C)C)c1nnc(C)n1-2` [Compound 9211], the IC50 in the assay with 22RV1 (22Rv1, 72 h) is over 500 nM; in the assay with LNCaP, over 500 nM.

Regarding `COC(=O)C[C@@H]1N=C(c2ccc(/C=C/CNO)c(F)c2)c2cc(OC)ccc2-n2c(C)nnc21` [Compound 9213], the IC50 in the assay with 22RV1 (22Rv1, 72 h) is under 50 nM; in the assay with LNCaP it was under 50 nM.

`COc1ccc2c(c1)C(c1ccc(/C=C/CNO)c(F)c1)=N[C@@H](CC(=O)O)c1nnc(C)n1-2` [Compound 9214]: the IC50 is over 500 nM with 22RV1 (22Rv1, 72 h) and over 500 nM with LNCaP.

For the molecule `COc1ccc2c(c1)C(c1ccc(/C=C/C=N\O)cc1)=N[C@@H](CC(=O)OC(C)(C)C)c1nnc(C)n1-2` [Compound 9221], the half-inhibitory concentration (IC50) in the assay with 22RV1 (22Rv1, 72 h) is over 500 nM; in the assay on LNCaP, 200 to 500 nM.

For `COc1ccc2c(c1)C(c1ccc(/C=C/C=N/O)cc1)=N[C@@H](CC(=O)OC(C)(C)C)c1nnc(C)n1-2` [Compound 9222], the IC50 in the assay with 22RV1 (22Rv1, 72 h) is 200 to 500 nM; with LNCaP, 50 to 200 nM.

On to `CCNC(=O)C[C@@H]1N=C(c2ccc(Cl)cc2)c2cc(OC)ccc2-n2c(C)nnc21` [I-BET-762, reference compound], for which the IC50 in the assay on 22RV1 (setting [1]) and in the assay on LNCaP was over 500 nM throughout.

Broadly, the IC50 is the concentration that gives 50% inhibition.
